We go through 52 molecules from PubChem BioAssay AID1996.

In brackets after ≈: the same amount, converted by molar mass.

For this data set the following is noted: buffer; pH 7.4; 200.0 µM.
For the molecule `CCOC(=O)c1sc(NC(=O)c2ccoc2C)c(C(N)=O)c1C`, the kinetic solubility was 7.3 µg/mL (≈ 21.7 µM). `COc1ccc(/C=C/C(=O)NC(=S)N2CCOCC2)cc1` displayed a solubility (kinetic) of more than 46 µg/mL.

In the case of `C=CCN1C(=O)c2ccccc2C1(O)Cc1ccccc1` (configuration not stated), the solubility (kinetic) was found to be 36.6 µg/mL (≈ 131 µM).

Take `CS(=O)(=O)N(CC(=O)N1CCOCC1)c1ccccc1`: the solubility (kinetic) was more than 44.8 µg/mL. As to `O=C(CN1C(=O)NC2(CCSC2)C1=O)NCc1ccccc1` (configuration not stated), the kinetic solubility is more than 47.9 µg/mL. With `CC(=O)Nc1ccc(C=C(C(C)=O)C(C)=O)cc1` the figure was more than 36.8 µg/mL. The molecule `Cc1cc(-c2csc(Nc3ccccn3)n2)ccc1F` yielded a solubility (kinetic) of less than 0.2 µg/mL. `COc1ccc(NC(=O)C(=O)Nc2cccc3cccnc23)cc1OC` gave a kinetic solubility of less than 0.3 µg/mL. With `CN(CCc1ccccn1)Cc1ccc(Cl)c(Cl)c1` the figure was 29.2 µg/mL (≈ 98.9 µM); with `O=S(=O)(NCCC1=CCCCC1)c1ccc(F)cc1`, 16.9 µg/mL (≈ 59.6 µM).

Regarding `Cc1ccc(O)c(NC(=O)c2cc(C)no2)c1`, the kinetic solubility is more than 34.8 µg/mL. As to `CN(C(=O)COC(=O)c1cc2ccccc2oc1=O)C1CCCCC1`, the solubility (kinetic) was 47.7 µg/mL (≈ 139 µM).

`CCCc1cc(=O)[nH]c(SCC(=O)Nc2ccc(Br)cc2)n1` yielded a kinetic solubility of 1.1 µg/mL (≈ 2.88 µM).

`O=C(NCCNC(=O)c1ccccn1)c1cccc(F)c1` returned a solubility (kinetic) of 41.7 µg/mL (≈ 145 µM). This solubility kinetic is about 38-fold higher than that of the molecule before.

`Cc1sc(N)nc1-c1ccc(Oc2ccccc2)cc1` displayed a kinetic solubility of 2.1 µg/mL (≈ 7.44 µM). This solubility kinetic lies about 20-fold lower than the previous one.

`Cc1ccc2cc(NC(=O)c3ccccc3)ccc2n1` gave a kinetic solubility of more than 39.3 µg/mL. In the case of `CCOc1ccccc1C(=O)NCC(=O)OCCOc1cccc(Cl)c1` it was 34 µg/mL (≈ 90 µM); in that of `Cc1cccc(C(=O)OCc2cncs2)c1`, 28.9 µg/mL (≈ 124 µM). For `COc1ccc(OCC(=O)OCC(=O)NC2CCCC2)cc1`, the kinetic solubility was more than 46.1 µg/mL.

In turn, `COc1ccccc1N1CCN(CCN2C(=O)C3CCCCN3C2=O)CC1` (configuration not stated) came in with a kinetic solubility of 40.8 µg/mL (≈ 110 µM). In the case of `COc1ccc(-n2c(SC)nc3sc4c(c3c2=O)CCN(C)C4)cc1` it was 34.8 µg/mL (≈ 93.2 µM); in that of `O=C(CNC(=O)C1CCCCC1)NCc1ccco1`, more than 39.6 µg/mL; in that of `O=C(OCc1cc(=O)n2ccsc2n1)c1ccc(O)cc1O`, 11.1 µg/mL (≈ 34.9 µM). `CCOc1ccc(C2NC(=O)CCC2[N+](=O)[O-])cc1` (configuration not stated): the kinetic solubility is more than 39.6 µg/mL. In the case of `O=C(CN1C(=O)c2ccccc2C1=O)Nc1ccccc1`, the kinetic solubility was found to be 18.9 µg/mL (≈ 67.4 µM). With `COc1ccc(OCC(O)CNC(=O)c2ccccc2)cc1` (configuration not stated) the figure was 40.1 µg/mL (≈ 133 µM).

`COc1ccc2cc(CCl)c(Cl)nc2c1` had a solubility (kinetic) of 19.2 µg/mL (≈ 79.3 µM).

`CC1Cc2ccccc2N1CC(=O)NC(=O)NC(C)(C)C` (configuration not stated) came in with a kinetic solubility of 30.7 µg/mL (≈ 106 µM). With `O=C(c1ccc(F)cc1)N1CCCC(c2ccccc2)C1` (configuration not stated) the figure was 36.3 µg/mL (≈ 128 µM). For `CCCCOc1ccc(CC(=O)NO)cc1`, the kinetic solubility was more than 33.5 µg/mL.

The molecule `Cc1ccc(NC(=O)N2CCCc3ccccc32)cc1` yielded a kinetic solubility of 36.2 µg/mL (≈ 136 µM). In the case of `Cc1ccc(C)c(CSCc2nc3ccccc3[nH]2)c1` it was 20.6 µg/mL (≈ 72.9 µM); in that of `CCOCCCNc1ncnc2c1nc1n2CCCC1`, more than 41.3 µg/mL. With `CCN(CC)CCC(=O)c1ccc(F)cc1.Cl` the figure was more than 39 µg/mL. Turning to `COc1cccc(/C=N/NC(=O)c2ccc3nc[nH]c3c2)c1`, the solubility (kinetic) was more than 44.1 µg/mL. In the case of `OCC1(CO)COC(CCc2ccccc2)=N1` it was more than 35.3 µg/mL; in that of `Cc1cc(C)c(S(=O)(=O)NCc2csc(C)n2)c(C)c1`, more than 46.6 µg/mL; in that of `O=C(COC(=O)CCC(=O)c1ccc(Cl)cc1)NCc1ccc(F)cc1`, 6.4 µg/mL (≈ 16.9 µM). With `CC(C)CC(C(=O)Nc1cccc(O)c1)N1C(=O)c2ccccc2C1=O` (configuration not stated) the figure was more than 52.9 µg/mL; with `CC(=O)Nc1ccc(/C=C(\C#N)S(=O)(=O)c2ccc(C)cc2)cc1`, 5.2 µg/mL (≈ 15.3 µM); with `COc1ccc(-c2cc(C(=O)N3CCCC3)no2)cc1OC`, 43.8 µg/mL (≈ 145 µM). In the case of `Cc1ccc(S(=O)(=O)Nc2ccc3c(c2)OCCO3)cc1`, the solubility (kinetic) is 42.3 µg/mL (≈ 139 µM).

Molecule `COc1cccc(OC)c1C(=O)Nc1cccc(S(=O)(=O)Nc2ccccc2Cl)c1` yielded a kinetic solubility of 47.1 µg/mL (≈ 105 µM).

As for `Cc1[nH]c2ccccc2c1C(c1ccncc1)N1CCC(C)CC1` (configuration not stated), the kinetic solubility is more than 47.9 µg/mL. `CN(C(=O)COC(=O)c1cc2ccccc2cc1O)c1ccccc1` showed a solubility (kinetic) of 3.4 µg/mL (≈ 10.1 µM). The molecule `COc1cccc(NC(=O)N2CCc3ccccc3C2)c1` returned a kinetic solubility of more than 42.4 µg/mL. In the case of `O=C(CCCn1c(=O)oc2ccccc21)Nc1ccccc1` it was 42.2 µg/mL (≈ 142 µM); in that of `C=CCOc1ccc(CNc2ccc3[nH]c(=O)[nH]c3c2)cc1OC`, 2.7 µg/mL (≈ 8.3 µM).

On to `COc1cc(NC(=O)c2ccc(N3CCCC3=O)cc2)cc(OC)c1`, for which the kinetic solubility came out at 10.4 µg/mL (≈ 30.6 µM).

The molecule `O=c1[nH]c(/C=C\c2cccc(F)c2)nc(O)c1[N+](=O)[O-]` returned a solubility (kinetic) of more than 41.6 µg/mL. The molecule `O=C1c2ccccc2C(=O)N1C1CCCCC1` gave a kinetic solubility of 1.3 µg/mL (≈ 5.67 µM). Take `COc1ccc(N2CCN(C(=O)c3cccc(NS(=O)(=O)c4cccc(F)c4)c3)CC2)cc1`: the kinetic solubility was found to be 52.8 µg/mL (≈ 112 µM).

Broadly, the kinetic solubility is solubility judged after dilution from a stock solution rather than from solid.
